The results in this text go back to PMC11788587, “Validating Low‐Dose Iohexol as a Marker for Glomerular Filtration Rate by In Vitro and In Vivo Studies” (Clinical and Translational Science, 2025).

The target in the data set is T1, hOATP1B3 (Homo sapiens, UniProt Q9NPD5).
T1 construct: expressed in transfected cells; host or cells: 293 cells (control: empty vector)
T1 sequence (Q9NPD5 1-702): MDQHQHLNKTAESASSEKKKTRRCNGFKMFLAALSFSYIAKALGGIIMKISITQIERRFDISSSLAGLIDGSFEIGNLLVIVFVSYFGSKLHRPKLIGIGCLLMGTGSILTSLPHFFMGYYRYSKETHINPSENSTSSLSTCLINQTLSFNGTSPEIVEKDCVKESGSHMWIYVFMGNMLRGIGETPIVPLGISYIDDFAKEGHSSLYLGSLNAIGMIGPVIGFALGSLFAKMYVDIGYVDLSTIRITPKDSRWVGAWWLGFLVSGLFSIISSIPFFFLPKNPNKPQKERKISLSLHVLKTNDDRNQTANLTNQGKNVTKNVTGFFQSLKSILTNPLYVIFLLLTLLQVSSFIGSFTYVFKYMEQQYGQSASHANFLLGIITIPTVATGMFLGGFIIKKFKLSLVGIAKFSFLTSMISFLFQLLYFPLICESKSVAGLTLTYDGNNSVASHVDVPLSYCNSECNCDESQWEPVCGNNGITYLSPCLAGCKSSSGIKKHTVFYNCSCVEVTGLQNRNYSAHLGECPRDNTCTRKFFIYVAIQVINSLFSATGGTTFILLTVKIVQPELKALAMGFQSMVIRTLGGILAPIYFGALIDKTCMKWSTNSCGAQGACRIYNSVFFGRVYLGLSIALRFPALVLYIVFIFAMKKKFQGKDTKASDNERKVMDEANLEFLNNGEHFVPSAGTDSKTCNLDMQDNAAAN
Kind of data set: Inhibition of hOATP1B3-mediated 3H-BSP uptake, stably transfected 293 cells. As to conditions: substrate 0.02 μM 3H-BSP, median (95% CI). It counts as cell-based. From the text: We characterized the inhibitory potential of iohexol on major drug transporters recommended by regulatory agencies, which were previously assessed in a clinical transporter phenotyping cocktail study. These transporters include hOAT1, hOAT3, hOCT1, hOCT2, hMATE1, hMATE2K, human organic anion transporter polypeptides (hOATP)1B1, hOATP1B3, and human multidrug resistance protein (hMDR)1. Additionally, we investigated whether iohexol is a substrate for any of the renal transporters among these, including hOAT1/3, hOCT1/2, and hMATE1/2K. Cell‐based uptake assays were used to assess the activities of hOAT1/3, hOCT1/2, hMATE1/2K, and hOATP1B1/1B3. Inside‐out membrane vesicle uptake assays were used to evaluate the activity of hMDR1.
To determine the maximal inhibitory potential of iohexol, intracellular accumulation of a standard substrate was measured with and without the clinically relevant highest concentrations of iohexol. Control inhibitors were tested in each experiment.
In all subsequent in vitro studies, control experiments were conducted to validate the results. […] Each condition, including cells or vesicles with the transporter and their respective controls, was analyzed in at least three replicates. […]
Uptake assays were carried out with stably transfected 293 cells expressing hOATP1B1 or hOATP1B3, as well as cells containing an empty vector, using the method described by Hsin CH, et al..^1 For the inhibition assays, cells were incubated with the radiolabeled standard substrates specific to each transporter: 0.01 μM ^3H-estrone sulfate for hOATP1B1, and 0.02 μM ^3H-bromosulphophthalein (BSP) for hOATP1B3. […] The accumulation of radio-labelled probe substrates (^3H) in the cell lysate is determined using a Tri-Carb 2810 liquid scintillation counter (PerkinElmer, Waltham, MA, USA) as described previously.^1 Cellular protein amount was determined in parallel from 6 paired wells per cell line and experimental day, using the Bradford method.^2 The 1X lysis buffer (5X lysis buffer from Promega, diluted 1+4 [v/v] in ddH2O) was used as the lysis buffer. […]

On to `CC(=O)N(CC(O)CO)c1c(I)c(C(=O)NCC(O)CO)c(I)c(C(=O)NCC(O)CO)c1I` (stereo not drawn) [iohexol], for which the “Inhibitory effect (% reduction of specific activity)” value (20 mM iohexol) is “no notable inhibitory effects”. The inhibition at 7 min, 2 mM (human, stably transfected 293 cells expressing hOATP1B3, probe 3H-bromosulphophthalein (BSP), 2 mM iohexol, read-out: Inhibitory effect (% reduction of specific activity)) was -2.5%. For the setting “human, stably transfected 293 cells expressing hOATP1B3, probe 3H-bromosulphophthalein (BSP), 20 mM iohexol, read-out: Inhibitory effect (% reduction of specific activity)”, the inhibition at 7 min, 20 mM is -21%.
